Patent US20250052744A1, “Dyes and Uses Thereof” (The University of Liverpool, priority 2021, published 2025)

Assays:
Type in all cases: cell-based
E. Coli SEC 31 [1] = experiment: Fluorescent signal intensity of stained bacteria (microscope, ImageJ)
Procedure: (§1) Firstly, all different bacterial strains were grown overnight in LB at 37° C. and 200 rpm. The mid-exponential phase cultures of bacterial strains were then diluted to a concentration of 10^5 cells·mL^−1 in LB. SYBR Green I, SYTO 13/9 and DiSC3(5) dyes were prepared by diluting them from their stocks.
(§2) The three dyes (SYBR Green I, SYTO 13/9 and DiSC3(5)) were then added in the final concentrations of 3 μM—DiSC3(5), 3 μM—SYTO 13/9 and 10× (diluted from the stock 10,000×)—SYBR Green I to the different bacterial strains and the strains incubated […] at 37° C. for 10 minutes in the dark.
(§3) The bacterial strains were then put on a haemocytometer and visualised under a microscope with fluorescent filters corresponding to individual dyes. Images were taken for all the bacterial strains at the same intensity of the incident laser light and 10-15 images were taken for each of the bacterial strains.
(§4) The images were then analysed on ImageJ software by first converting the coloured images to monochromatic images, then selecting an area with cells and analysing the plot profile. The intensity of the peaks and background from the image was then recorded.
(§5) A similar protocol to Example 1 was followed, with the addition of […] of FM 4-64.

[2] = system: Klebsiella pneumoniae NCTC 9633; experiment: as above
Procedure: as §1, §2, §3, §4, §5

[3] = system: Enterococcus faecium NCTCT 7171; experiment: as above
Procedure: as §1, §2, §3, §4, §5

P. Aeruginosa NCTC 10332 [4] = experiment: as above
Procedure: as §1, §2, §3, §4, §5

S. Aureus NCTC 8532 [5] = experiment: as above
Procedure: as §1, §2, §3, §4, §5

P. Mirabilis NCTC 11938 [6] = experiment: as above
Procedure: as §1, §2, §3, §4, §5

E. Coli SEC 31 [7] = experiment: Bacterial growth with dyes, optical density after 24 hours; conditions: with 3 μM DiSC3(5) and 3 μM SYTO 13/9
Procedure: (§6) FIG. 3 is a graph showing is a graph showing the average optical density after 24 hours (OD 600) of P. Aeruginosa NCTC 10332, E. Coli SEC 31, Enterococcus faecium NCTCT 7171, P. Mirabilis NCTC 11938, S. Aureus NCTC 8532 and Klebsiella pneumoniae NCTC 9633, when incubated with DiSC3(5), SYBR Green I and SYTO 13/9 where different concentrations of SYBR Green I were assessed.
as §6, with “FIG. 4” for “FIG. 3”, “of SYTO 13/9” for “of SYBR Green I”
(§7) Comparative experiments were conducted using multiple DNA dyes in low concentration and one DNA at different (and higher) concentration in order to establish whether increasing DNA dye concentration would affect bacterial growth and hinder the differentiation of bacterial strains.
(§8) Experiments were conducted which were similar to Example 1.
(§9) In one experiment, 3 μM of DiSC3(5) and 3 μM of SYTO 13/9 was assessed with CYBR Green I at the following concentrations: 1× average, 3× average, 10× average, 30 average and 100× average.
(§10) In another experiment, 3 μM of DiSC3(5) and 10× of CYBR Green I was assessed with SYTO 13/9 at the following concentrations: 1 μM average, 3 μM average and 10 μM average.

[8] = system: Klebsiella pneumoniae NCTC 9633; experiment: as above; conditions: with 3 μM DiSC3(5) and 3 μM SYTO 13/9
Procedure: as §6
as §6, with “FIG. 4” for “FIG. 3”, “of SYTO 13/9” for “of SYBR Green I”
as §7, §8, §9, §10

[9] = system: Enterococcus faecium NCTCT 7171; experiment: as above; conditions: with 3 μM DiSC3(5) and 3 μM SYTO 13/9
Procedure: as §6
as §6, with “FIG. 4” for “FIG. 3”, “of SYTO 13/9” for “of SYBR Green I”
as §7, §8, §9, §10

P. Aeruginosa NCTC 10332 [10] = experiment: as above; conditions: with 3 μM DiSC3(5) and 3 μM SYTO 13/9
Procedure: as §6
as §6, with “FIG. 4” for “FIG. 3”, “of SYTO 13/9” for “of SYBR Green I”
as §7, §8, §9, §10

S. Aureus NCTC 8532 [11] = experiment: as above; conditions: with 3 μM DiSC3(5) and 3 μM SYTO 13/9
Procedure: as §6
as §6, with “FIG. 4” for “FIG. 3”, “of SYTO 13/9” for “of SYBR Green I”
as §7, §8, §9, §10

P. Mirabilis NCTC 11938 [12] = experiment: as above; conditions: with 3 μM DiSC3(5) and 3 μM SYTO 13/9
Procedure: as §6
as §6, with “FIG. 4” for “FIG. 3”, “of SYTO 13/9” for “of SYBR Green I”
as §7, §8, §9, §10

[13] = Table 1, 3 μM DiSC3(5), 3 μM SYTO 13/9, 10× SYBR Green I, 37° C. for 10 minutes, background subtracted
[14] = Table 3, DiSC3(5) 3 uM, SYBR Green 10x, SYTO 13/9 3 uM, FM 4-64 15 uM

CCCN1C(=CC=CC=Cc2sc3ccccc3[n+]2CCC)Sc2ccccc21.[I-] [DiSC3(5), 3,3′-Dipropylthiadicarbocyanine Iodide]
fluorescent signal intensity value, Average (E. Coli SEC 31 [1]; [13]): 62.66
fluorescent signal intensity value, Average (E. Coli SEC 31 [1]; [14]): 62.66
fluorescent signal intensity value, Average [2, 13]: 16.70
fluorescent signal intensity value, Average [2, 14]: 16.70
fluorescent signal intensity value, Average [3, 13]: 142.28
fluorescent signal intensity value, Average [3, 14]: 142.28
fluorescent signal intensity value, Average (P. Aeruginosa NCTC 10332 [4]; [13]): 0.00
fluorescent signal intensity value, Average (P. Aeruginosa NCTC 10332 [4]; [14]): 0.00
fluorescent signal intensity value, Average (S. Aureus NCTC 8532 [5]; [13]): 184.80
fluorescent signal intensity value, Average (S. Aureus NCTC 8532 [5]; [14]): 184.80
fluorescent signal intensity value, Average (P. Mirabilis NCTC 11938 [6]; [13]): 88.50
fluorescent signal intensity value, Average (P. Mirabilis NCTC 11938 [6]; [14]): 88.50

CCN(CC)c1ccc(C=CC=CC=Cc2cc[n+](CCC[N+](CC)(CC)CC)cc2)cc1.[Br-].[Br-] [FM 4-64, N-(3-Triethylammoniumpropyl)-4-(6-(4-(Diethylamino) Phenyl) Hexatrienyl) Pyridinium Dibromide]
fluorescent signal intensity value, Average (E. Coli SEC 31 [1]; [14]): 56.50
fluorescent signal intensity value, Average [2, 14]: 30.00
fluorescent signal intensity value, Average [3, 14]: 25.00
fluorescent signal intensity value, Average (P. Aeruginosa NCTC 10332 [4]; [14]): 10.00
fluorescent signal intensity value, Average (S. Aureus NCTC 8532 [5]; [14]): 89.00
fluorescent signal intensity value, Average (P. Mirabilis NCTC 11938 [6]; [14]): 0.00

CCCN(CCCN(C)C)c1cc(/C=C2/Sc3ccccc3N2C)c2ccccc2[n+]1-c1ccccc1 [SYBR Green I, N′,N′-dimethyl-N-[4-[(E)-(3-methyl-1,3-benzothiazol-2-ylidene)methyl]-1-phenylquinolin-1-ium-2-yl]-N-propylpropane-1,3-diamine]
fluorescent signal intensity value, Average (E. Coli SEC 31 [1]; [13]): 104.53
fluorescent signal intensity value, Average (E. Coli SEC 31 [1]; [14]): 104.53
fluorescent signal intensity value, Average [2, 13]: 21.87
fluorescent signal intensity value, Average [2, 14]: 21.87
fluorescent signal intensity value, Average [3, 13]: 162.27
fluorescent signal intensity value, Average [3, 14]: 162.27
fluorescent signal intensity value, Average (P. Aeruginosa NCTC 10332 [4]; [13]): 123.67
fluorescent signal intensity value, Average (P. Aeruginosa NCTC 10332 [4]; [14]): 123.67
fluorescent signal intensity value, Average (S. Aureus NCTC 8532 [5]; [13]): 196.52
fluorescent signal intensity value, Average (S. Aureus NCTC 8532 [5]; [14]): 196.52
fluorescent signal intensity value, Average (P. Mirabilis NCTC 11938 [6]; [13]): 109.85
fluorescent signal intensity value, Average (P. Mirabilis NCTC 11938 [6]; [14]): 109.85
average optical density after 24 hours (OD 600) (E. Coli SEC 31 [7]; SYBR Green I 1x): 3.407
average optical density after 24 hours (OD 600) (E. Coli SEC 31 [7]; SYBR Green I 3x): 3.306
average optical density after 24 hours (OD 600) (E. Coli SEC 31 [7]; SYBR Green I 10x): 3.139
average optical density after 24 hours (OD 600) (E. Coli SEC 31 [7]; SYBR Green I 30x): 2.086
average optical density after 24 hours (OD 600) (E. Coli SEC 31 [7]; SYBR Green I 100x): 2.514
average optical density after 24 hours (OD 600) ([8]; SYBR Green I 1x): 4.719
average optical density after 24 hours (OD 600) ([8]; SYBR Green I 3x): 4.907
average optical density after 24 hours (OD 600) ([8]; SYBR Green I 10x): 3.439
average optical density after 24 hours (OD 600) ([8]; SYBR Green I 30x): 2.053
average optical density after 24 hours (OD 600) ([8]; SYBR Green I 100x): 1.138
average optical density after 24 hours (OD 600) ([9]; SYBR Green I 1x): 1.158
average optical density after 24 hours (OD 600) ([9]; SYBR Green I 3x): 1.315
average optical density after 24 hours (OD 600) ([9]; SYBR Green I 10x): 0.136
average optical density after 24 hours (OD 600) ([9]; SYBR Green I 30x): 0
average optical density after 24 hours (OD 600) ([9]; SYBR Green I 100x): 0.022
average optical density after 24 hours (OD 600) (P. Aeruginosa NCTC 10332 [10]; SYBR Green I 1x): 5.785
average optical density after 24 hours (OD 600) (P. Aeruginosa NCTC 10332 [10]; SYBR Green I 3x): 5.785
average optical density after 24 hours (OD 600) (P. Aeruginosa NCTC 10332 [10]; SYBR Green I 10x): 2.968
average optical density after 24 hours (OD 600) (P. Aeruginosa NCTC 10332 [10]; SYBR Green I 30x): 3.113
average optical density after 24 hours (OD 600) (P. Aeruginosa NCTC 10332 [10]; SYBR Green I 100x): 2.39
average optical density after 24 hours (OD 600) (S. Aureus NCTC 8532 [11]; SYBR Green I 1x): 3.796
average optical density after 24 hours (OD 600) (S. Aureus NCTC 8532 [11]; SYBR Green I 3x): 0
average optical density after 24 hours (OD 600) (S. Aureus NCTC 8532 [11]; SYBR Green I 10x): 0
average optical density after 24 hours (OD 600) (S. Aureus NCTC 8532 [11]; SYBR Green I 30x): 0
average optical density after 24 hours (OD 600) (S. Aureus NCTC 8532 [11]; SYBR Green I 100x): 0
average optical density after 24 hours (OD 600) (P. Mirabilis NCTC 11938 [12]; SYBR Green I 1x): 5.785
average optical density after 24 hours (OD 600) (P. Mirabilis NCTC 11938 [12]; SYBR Green I 3x): 5.785
average optical density after 24 hours (OD 600) (P. Mirabilis NCTC 11938 [12]; SYBR Green I 10x): 4.635
average optical density after 24 hours (OD 600) (P. Mirabilis NCTC 11938 [12]; SYBR Green I 30x): 4.044
average optical density after 24 hours (OD 600) (P. Mirabilis NCTC 11938 [12]; SYBR Green I 100x): 0.001
